Experimental findings from PMC4726147, “Structural Insights into the Quaternary Catalytic Mechanism of Hexameric Human Quinolinate Phosphoribosyltransferase, a Key Enzyme in de novo NAD Biosynthesis” (Scientific Reports, 2016) are described below.

Common to all, as to type: binding
For test [1], the target named is T1, Quinolinate phosphoribosyltransferase (HsQPRT) (Homo sapiens, UniProt Q15274).
T1 construct: gene QPRT; full-length HsQPRT (residues 1–297), hexamer
The test can be described thus: ITC. In general terms: Isothermal titration calorimetry measures the heat released or taken up as one component is titrated into another.

The target in test [2] is T1, Quinolinate phosphoribosyltransferase (HsQPRT). The test can be described thus: co-crystal structure ([…] Å).
Test [3] concerns the target T2, Quinolinate phosphoribosyltransferase (HsQPRT) NΔ9 mutant (Homo sapiens, UniProt Q15274, NΔ9).
T2 construct: gene QPRT; NΔ9, N-terminal truncated (helix α1 removed), dimer
In words: ITC.

Test [4] concerns the target T1, Quinolinate phosphoribosyltransferase (HsQPRT). In words: ITC and crystal structure ([…] Å).

Molecules are shown by their SMILES.

T1 sequence (Q15274 whole entry, the tested form may be a part): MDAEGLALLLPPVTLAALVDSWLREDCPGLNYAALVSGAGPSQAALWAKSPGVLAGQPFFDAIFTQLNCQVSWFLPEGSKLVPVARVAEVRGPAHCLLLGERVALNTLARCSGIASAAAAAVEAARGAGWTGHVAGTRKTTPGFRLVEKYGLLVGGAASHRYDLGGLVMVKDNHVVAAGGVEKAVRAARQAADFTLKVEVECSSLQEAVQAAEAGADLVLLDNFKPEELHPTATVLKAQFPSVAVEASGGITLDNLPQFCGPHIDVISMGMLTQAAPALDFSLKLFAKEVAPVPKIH
T2 sequence (Q15274 10-297, stated change not applied): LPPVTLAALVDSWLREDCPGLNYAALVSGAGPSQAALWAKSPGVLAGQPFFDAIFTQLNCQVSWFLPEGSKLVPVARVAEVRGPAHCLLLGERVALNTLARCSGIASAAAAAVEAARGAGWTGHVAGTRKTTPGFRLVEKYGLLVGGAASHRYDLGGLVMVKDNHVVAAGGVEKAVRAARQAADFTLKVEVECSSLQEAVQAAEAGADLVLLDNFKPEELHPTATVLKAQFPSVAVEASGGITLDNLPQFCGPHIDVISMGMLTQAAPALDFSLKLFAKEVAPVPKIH

One may read the Kd as a measure of binding affinity in units of concentration. The low end stands for tighter binding, the high end for weaker binding. Compound `O=C(O)c1ccccc1C(=O)O` [phthalic acid] came in with a Kd in test [1] of 5.2 ± 0.2 µM.
Regarding `O=C(O)c1ccc[n+]([C@@H]2O[C@H](COP(=O)([O-])O)[C@@H](O)[C@H]2O)c1` [NAMN, nicotinic acid mononucleotide], in test [2], the “co-crystal structure (2.6 Å)” value was “clear density for two loops (loops L and O) and the substrate molecules (QA and NAMN) bound to the protein”.
Take `O=C(O)c1cccnc1C(=O)O` [QA, quinolinic acid]: the Kd is 401 ± 56 µM in test [3] and 4.8 ± 0.4 µM in test [4].
